Measured values published in patent EP3177293B1, “METHOD OF TREATING SKIN CONDITIONS” (Astrazeneca AB, priority 2014, dated 2015).
Like-named read-outs stand apart in the source and are kept apart here.

Experiments:
[1] = target: T1, mouse DGAT1 (Mus musculus, UniProt Q9Z2A7); experiment: in vitro recombinant DGAT1 enzyme assay (mouse); assay type: biochemical
T1 sequence (Q9Z2A7 1-498): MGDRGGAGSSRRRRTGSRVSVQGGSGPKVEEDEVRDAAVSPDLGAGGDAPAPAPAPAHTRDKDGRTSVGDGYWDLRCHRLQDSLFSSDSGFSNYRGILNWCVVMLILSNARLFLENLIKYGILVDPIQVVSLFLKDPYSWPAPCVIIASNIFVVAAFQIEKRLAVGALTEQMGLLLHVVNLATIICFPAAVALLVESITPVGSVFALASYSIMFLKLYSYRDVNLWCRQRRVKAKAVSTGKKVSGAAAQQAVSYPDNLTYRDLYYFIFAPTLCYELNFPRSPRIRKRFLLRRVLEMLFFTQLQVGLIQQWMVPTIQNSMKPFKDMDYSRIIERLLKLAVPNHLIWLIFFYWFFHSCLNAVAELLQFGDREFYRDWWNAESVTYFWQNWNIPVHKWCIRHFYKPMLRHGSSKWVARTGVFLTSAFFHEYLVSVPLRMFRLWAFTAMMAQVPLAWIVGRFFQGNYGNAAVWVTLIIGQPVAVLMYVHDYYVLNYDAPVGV

[2] = target: T2, dog DGAT1 (Canis lupus familiaris, UniProt A0A8I3NFS1); experiment: in vitro recombinant DGAT1 enzyme assay (dog); assay type: biochemical
T2 sequence (A0A8I3NFS1 67-492): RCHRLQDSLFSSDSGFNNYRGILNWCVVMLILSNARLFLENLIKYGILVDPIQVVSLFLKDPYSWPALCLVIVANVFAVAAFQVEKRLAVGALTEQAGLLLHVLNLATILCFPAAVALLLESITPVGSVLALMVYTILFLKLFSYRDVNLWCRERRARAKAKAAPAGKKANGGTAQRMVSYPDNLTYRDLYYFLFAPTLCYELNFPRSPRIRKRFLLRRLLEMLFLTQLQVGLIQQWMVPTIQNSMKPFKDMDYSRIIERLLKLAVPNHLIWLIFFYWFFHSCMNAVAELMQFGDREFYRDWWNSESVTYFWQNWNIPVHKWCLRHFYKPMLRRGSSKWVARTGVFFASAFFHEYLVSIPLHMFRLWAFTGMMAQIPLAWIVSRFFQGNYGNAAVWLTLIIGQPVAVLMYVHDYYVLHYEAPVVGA

[3] = target: T3, human DGAT1 (Homo sapiens, UniProt O75907); experiment: in vitro recombinant DGAT1 enzyme assay (human); assay type: biochemical
T3 sequence (O75907 1-488): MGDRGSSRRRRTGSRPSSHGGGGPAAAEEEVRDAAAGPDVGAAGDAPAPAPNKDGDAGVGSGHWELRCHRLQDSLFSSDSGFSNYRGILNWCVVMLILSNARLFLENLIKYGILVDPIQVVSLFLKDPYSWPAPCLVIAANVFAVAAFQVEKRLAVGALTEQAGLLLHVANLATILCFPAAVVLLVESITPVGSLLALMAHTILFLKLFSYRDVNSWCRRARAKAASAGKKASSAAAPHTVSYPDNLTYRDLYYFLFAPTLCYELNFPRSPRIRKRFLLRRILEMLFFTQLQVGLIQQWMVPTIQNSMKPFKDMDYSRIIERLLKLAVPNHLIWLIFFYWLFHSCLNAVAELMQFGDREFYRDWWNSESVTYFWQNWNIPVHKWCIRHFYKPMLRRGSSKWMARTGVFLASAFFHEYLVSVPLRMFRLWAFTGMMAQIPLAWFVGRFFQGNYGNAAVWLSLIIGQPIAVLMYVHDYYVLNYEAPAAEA

[4] = target: T4, human ACAT2 (Homo sapiens, UniProt O75908); experiment: ACAT2 enzyme inhibition; assay type: biochemical
T4 sequence (O75908 1-522): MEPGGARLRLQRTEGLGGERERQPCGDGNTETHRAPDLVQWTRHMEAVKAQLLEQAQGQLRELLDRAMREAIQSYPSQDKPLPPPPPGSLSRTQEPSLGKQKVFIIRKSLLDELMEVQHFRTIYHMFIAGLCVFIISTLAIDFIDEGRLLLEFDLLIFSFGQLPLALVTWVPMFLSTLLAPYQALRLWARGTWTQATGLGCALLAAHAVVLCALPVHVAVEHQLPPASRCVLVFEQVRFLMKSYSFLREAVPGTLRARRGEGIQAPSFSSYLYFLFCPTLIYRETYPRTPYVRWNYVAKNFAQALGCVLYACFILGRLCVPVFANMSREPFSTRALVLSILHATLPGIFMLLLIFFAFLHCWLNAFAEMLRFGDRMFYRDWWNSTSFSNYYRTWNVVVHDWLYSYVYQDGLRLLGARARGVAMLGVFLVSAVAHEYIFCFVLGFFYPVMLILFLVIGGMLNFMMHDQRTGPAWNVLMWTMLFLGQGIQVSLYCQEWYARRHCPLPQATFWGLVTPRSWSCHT

[5] = target: T5, human DGAT2 (Homo sapiens, UniProt Q96PD7); experiment: DGAT2 activity; assay type: biochemical
T5 sequence (Q96PD7 1-388): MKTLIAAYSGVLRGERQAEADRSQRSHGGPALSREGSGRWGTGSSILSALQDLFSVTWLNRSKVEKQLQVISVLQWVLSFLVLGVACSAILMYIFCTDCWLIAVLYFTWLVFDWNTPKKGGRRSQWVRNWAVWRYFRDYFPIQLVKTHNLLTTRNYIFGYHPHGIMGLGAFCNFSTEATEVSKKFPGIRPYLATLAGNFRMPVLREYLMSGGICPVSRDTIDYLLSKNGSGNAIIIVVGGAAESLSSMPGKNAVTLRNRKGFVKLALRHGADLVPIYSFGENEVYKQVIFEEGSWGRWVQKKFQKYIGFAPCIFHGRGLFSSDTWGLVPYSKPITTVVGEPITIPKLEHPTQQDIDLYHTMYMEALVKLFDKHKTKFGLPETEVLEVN

[6] = toxicokinetic analysis of plasma exposure in mice, oral dosing; assay type: in vivo, mice (Crl:CD-1(ICR)); settings: for Cmax as multiple of mouse microsomal DGAT1 enzyme IC50 / Cmin as multiple of DGAT1 IC50: oral once daily
Text: (§1) Doses and frequency of dosing were selected following consideration of species specific tolerability and pharmacokinetic parameters. Doses predicted to result in exposures which were likely to cause maximum DGAT1 inhibition without resulting in intolerability were chosen as the highest dose level.
The mice were killed by administration of halothane.

[7] = test system: sebaceous glands
Text: Up to 32 (16 male and 16 female) mice (Crl:CD-1(ICR)) per dose group were obtained from the AstraZeneca breeding unit (Alderley Park, Macclesfield, UK). The animals, aged 7-8 weeks, were allowed to acclimatise for at least one week, were multiple-housed, sexes separately, up to 5/cage. Water from the site drinking water supply and RM1 (E) SQC pelleted diet supplied by Special Diets Services Ltd., England, was freely available. Nesting material (Tapvei Aspen Chips, Tapvei small aspen bricks, Finland, sizzle nests and paper shavings, and polycarbonate tunnels, Datesand,UK) was provided. Animals were terminated for scheduled necropsy on the day after the final dose. The mice were killed by administration of halothane.
(§2) For pharmacokinetic analysis, blood samples were collected into lithium heparin tubes from animals on either the first or penultimate day of the study. Plasma was separated by centrifugation at 4°C and stored for analysis at -20°C. […] Exposure data are presented as FDM (free drug concentration in blood plasma required to inhibit the microsomal DGAT1 enzyme by 50%) and are mean data for each dose level. […] At the end of each experiment, animals were terminally anaesthetised and representative samples of skin (mammary gland region for mice, abdominal region for dogs) were taken at necropsy, placed in 10% buffered formalin and processed for histopathological assessment. Conventional processing into wax and haematoxylin and eosin staining of sections preceded their light microscopic examination.
(§3) Light microscopic examination and histology scoring was performed by a certified pathologist and findings were peer reviewed by a second pathologist. Each section of skin contained from 15 - 25 hair follicles in different stages of differentiation with associated sebaceous glands that were cut in multiple planes. […] Therefore, assessment of sebaceous cell/gland atrophy was based on their appearances irrespective of the stage of differentiation of the associated hair follicle in all instances.

[8] = toxicokinetic analysis of plasma exposure in dogs, oral dosing; assay type: in vivo, beagle dogs
Text: as §1

[9] = test system: sebaceous glands; remark: listed apart in the source
Procedure: Up to 8 (4 male and 4 female) beagle dogs per treatment group were obtained from the AstraZeneca breeding unit (Alderley Park, Macclesfield, UK). […] All animals were observed daily for clinical signs of toxicity. Body weight and food consumption was measured daily prior to dosing. Animals were single-penned, with access to an exercise area with others of the same sex and group, for the major part of each day. Animals had free access to water from the site drinking water supply. A set weight of SDS Dog-D3 (E) SQC, supplied by Special Diet Services Ltd, England, was provided daily, in the afternoon, access being allowed for up to approximately 2 hours. Toys (e.g., bones) were provided for additional environmental enhancement. Animals were terminated for scheduled necropsy on the day after the final dose. The dogs were killed by intravenous administration of sodium pentobarbitone and then exsanguinated.
as §2, §3

[10] = test system: skin; settings: clinical trials of short duration (Denison et al. 2013); cited from earlier work
[11] = 1mg/kg/day dose group, 180 day study
[12] = 600 mg/kg/day dose group, 7 day study
[13] = mouse, 1 month and 6 month studies

Compound: Cc1nc(C)c(-c2ccc([C@H]3CC[C@H](CC(=O)O)CC3)cc2)nc1C(N)=O [2-((1R,4R)-4-(4-(6-carbamoyl-3,5-dimethylpyrazin-2-yl)phenyl)cyclohexyl)acetic acid]
- IC50 [1]: ~100 nM
- IC50 [2]: ~60 nM
- IC50 [3]: ~80 nM
- IC50 [4]: > 35000 nM
- activity against human DGAT2 [5]: No activity
- Cmax as multiple of mouse microsomal DGAT1 enzyme IC50 [6, 11]: 4 x IC50
- Cmin as multiple of DGAT1 IC50 [6, 11]: 1 x IC50
- Cmax as multiple of mouse microsomal DGAT1 enzyme IC50 [6, 12]: 1581 x IC50
- Cmin as multiple of DGAT1 IC50 [6, 12]: 766 x IC50
- sex difference in exposure ([6]; male versus female mice): 1.5 - 3 x
- exposure at Cmin at which additional skin findings occurred ([7]; Crl:CD-1(ICR), mouse, in vivo, 6 months): ≥ 7 x FDM
- skin photomicrograph appearance of sebaceous glands (Figure 5 B) ([7]; male mouse, 300 mg/kg/day for 6 months): substantial atrophy of sebaceous glands with much reduced sebum and mild hyperkeratosis
- reversibility of sebaceous gland atrophy ([7]; mice, 4 week drug-free period after 1 month of treatment): complete reversibility
- group mean severity of sebaceous gland atrophy ([7]; mice, after 1 month (28 days) of dosing): minimal to mild
- group mean severity of sebaceous gland atrophy ([7]; mice, after 6 months (180 days) of dosing): minimal to moderate
- sebaceous gland atrophy ([7]; mice, high doses for up to 7 days): absent
- duration of DGAT1 inhibition required for microscopical detection of sebaceous gland atrophy ([7]; mouse): more than 7 days
- skin photomicrograph appearance of sebaceous glands (Figure 1 B) ([7]; mouse, 300 mg/kg/day for 28 days): severely atrophic sebaceous glands with substantially reduced sebum
- skin photomicrograph appearance of sebaceous glands (Figure 1 C) ([7]; mouse, 300 mg/kg/day for 28 days followed by drug free recovery period of 28 days): normal appearance of sebum filled sebaceous glands
- exposure at Cmin with mild to moderate sebaceous gland atrophy [7, 13]: 46 x FDM
- exposure at Cmin with minimal to mild sebaceous gland atrophy [7, 13]: 7 - 40 x FDM
- exposure at Cmax at which additional skin findings occurred ([7]; mouse, in vivo): at least 50 x FDM
- histopathological findings in the skin ([7]; mouse, in vivo): restricted to sebaceous gland atrophy only
- significant increase in inflammation in the skin ([7]; mouse, in vivo): not seen
- skin findings associated with sebaceous gland atrophy ([7]; mouse, in vivo): epidermal hyperplasia, occasional hair follicle atrophy, as well as in-life observation of hair-loss and skin lesions
- tolerability ([7]; mouse, in vivo): well tolerated
- Cmax as multiple of dog microsomal DGAT1 enzyme IC50 ([8]; 4 mg/kg/day dose group, 3 month study): 10 x IC50
- Cmin as multiple of DGAT1 IC50 ([8]; 4 mg/kg/day dose group, 3 months study): 1 x IC50
- Cmin as multiple of DGAT1 IC50 ([8]; 1000 mg/kg/day dose group, 7 day study): 54 x IC50
- Cmax as multiple of dog microsomal DGAT1 enzyme IC50 ([8]; 1000 mg/kg/day dose group, 'in the same study' (3 month study as printed)): 292 x IC50
- duration of DGAT1 inhibition required for microscopical detection of sebaceous gland atrophy ([9]; dog): more than 7 days
- exposure at Cmin with mild to moderate sebaceous gland atrophy ([9]; dog): > 36 x FDM
- exposure at Cmin with minimal to mild sebaceous gland atrophy ([9]; dog): 7-54 x FDM
- skin photomicrograph appearance of sebaceous glands (Figure 6 B) ([9]; dog, 100 mg/kg/day for 6 months): atrophic sebaceous glands which contain little sebum
- additional skin changes (occasional hair follicle atrophy, hair-loss and skin lesions) ([9]; dog, in vivo): not observed
- hyperkeratosis of the epithelium covering the infundibula of hair follicles ([9]; dog, in vivo): minimal hyperkeratosis
- significant increase in inflammation in the skin ([9]; dog, in vivo): not seen
- tolerability ([9]; dog, in vivo): well tolerated
- sebaceous gland atrophy ([9]; dogs dosed for up to 7 days): absent
- reversibility of sebaceous gland atrophy ([9]; dogs, 4 week drug-free period after 3 months of dosing): complete reversibility
- group mean severity of sebaceous gland atrophy ([9]; dogs, after 3 months (90 days) of dosing): minimal to moderate
- group mean severity of sebaceous gland atrophy ([9]; dogs, after 14 days of dosing): minimal to mild
- group mean severity of sebaceous gland atrophy ([9]; dogs, highest dose group after 6 months (180 days)): moderate
- effects on the skin of healthy volunteers [10]: no effects
